The values below come from patent publication US20170231177A1, “REGENERATION AND TRANSFORMATION OF COSMOS BIPINNATUS PLANTLETS” (Novin Giti Gene R&D Center (N.G.G), priority 2015, published 2017).

Each structure is given as a SMILES string.

The test system of test [1] is cotyledon explants of Cosmos Bipinnatus. In words: Shoot number of regenerated cotyledon explants on regeneration media. Format: cell-based. The protocol: (§1) In this example, direct regeneration of Cosmos Bipinnatus plantlets was carried out with the following steps according to one or more aspects of the present disclosure. First, Cosmos Bipinnatus seeds were sterilized. The sterilization of Cosmos Bipinnatus seeds was carried out by soaking the seeds in an ethanol solution with a concentration of about 70% volume/volume for about 1 min followed by soaking the seeds in a hypochlorite sodium solution with a concentration of about 2% weight/volume for about 10 min, and then the seeds were rinsed three times with sterile distilled water.
(§2) The sterilized Cosmos Bipinnatus seeds were then germinated in order to obtain cotyledons of Cosmos Bipinnatus plant. Seed germination was carried out by putting the sterilized Cosmos Bipinnatus seeds under a sterile condition in an agar-solidified MS medium. Then, the sterilized Cosmos Bipinnatus seeds in the agar-solidified MS medium were incubated in a growth chamber with photoperiods of 16 hours in light and 8 hours in dark under fluorescent illuminations (60 μmol m^2 s^1) at 22° C.±1° C. for a period of 3 days. The cotyledons of Cosmos Bipinnatus plant that grew from germinated seeds after 3 days were cut and used as explants in the following steps of the direct regeneration process.
(§3) The obtained explants were then cultured onto a regeneration medium for regenerating cotyledon explants of Cosmos Bipinnatus. To this end, 10 explants, with their adaxial side down, were cultured onto the regeneration medium in a Petri dish for regeneration in cotyledons to occur. The regeneration in cotyledons was assessed by examining shoot-inducing ability in the presence of different regeneration medium compositions. The different regeneration medium compositions included respectively different concentrations of plant growth regulators and ethylene inhibitors. The regeneration media contained benzyl adenine (BA), silver nitrate, and adenine sulfate with different concentrations. An MS medium supplemented with 3% sucrose was used as a basal medium and the pH was adjusted to about 5.8 using a 1 N solution of NaOH.
As used herein, “shoot number” is the average number of shoots that are generated on the 10 explants used in the experiments for three replications.

Test [2] shares this test system. In words: Regeneration frequency of cotyledon explants on regeneration media. Format: cell-based. The protocol: as §1, §2
as §3, with “An MS medium supplemented with 3% sucrose was used as a basal medium and the pH was adjusted to about 5.8 using a 1 N solution of NaOH.” left out

[3] abbreviates: BA 2.5, AgNO3 0, adenine sulfate 0 mg/l in MS medium.
Where [4] appears, read: BA 5, AgNO3 0, adenine sulfate 0 mg/l in MS medium.
The mark [5] stands for this setting: BA 7.5, AgNO3 0, adenine sulfate 0 mg/l in MS medium.

As to `Nc1ncnc2nc[nH]c12.O=S(=O)(O)O` [Adenine sulfate, adenine sulfate], the Shoot number was 0.00 ± 0.00 in test [1] (BA 0, AgNO3 0, adenine sulfate 10 mg/l in MS medium); 0.00 ± 0.00 in test [1] (BA 0, AgNO3 0, adenine sulfate 20 mg/l in MS medium); 0.00 ± 0.00 in test [1] (BA 0, AgNO3 0, adenine sulfate 40 mg/l in MS medium); 0.00 ± 0.00 in test [1] (BA 0, AgNO3 0, adenine sulfate 80 mg/l in MS medium).
Turning to `O=[N+]([O-])[O-].[Ag+]` [AgNO3, silver nitrate], the Shoot number in test [1] (BA 0, AgNO3 2.5, adenine sulfate 0 mg/l in MS medium) is 0.00 ± 0.00; in test [1] (BA 0, AgNO3 5, adenine sulfate 0 mg/l in MS medium), 0.00 ± 0.00; in test [1] (BA 0, AgNO3 7.5, adenine sulfate 0 mg/l in MS medium), 0.00 ± 0.00.
Take `c1ccc(CNc2ncnc3nc[nH]c23)cc1` [BA, benzyladenine]: the values for the Shoot number in test [1] (setting [3]), in test [1] (setting [4]) and in test [1] (setting [5]) were 1.34 ± 0.33, 0.34 ± 0.28 and 0.67 ± 0.33, respectively. Also, the Regeneration frequency is 6.25 ± 0.00% in test [2] (setting [3]), 6.25 ± 1.70% in test [2] (setting [4]) and 5.25 ± 2.06% in test [2] (setting [5]).
